Test results: US20210205292A1, “INHIBITORS OF CREB-CBP INTERACTION FOR TREATMENT OF LEUKEMIA” (The Board of Trustees of the Leland Stanford Junior …, priority 2016, published 2021)

What was measured:
Type in all cases: cell-based
[1] = test system: Nalm6 (human ALL cell line); test: CellTiter Glo assay in Nalm6 cells
Procedure: (§1) The compounds prepared according to the methods described herein and tested for activity in the CellTiter Glo assay in HL60 (Human promyelocytic leukemia cell line), Jukat (human T lymphocyte cell line for acute T cell leukemia) and/or Nalm6 (human ALL cell line) cells.
(§2) Compounds were prepared according to the methods described herein and tested for activity in the CellTiter Glo assay in HL60 (Human promyelocytic leukemia cell line), Jukat (human T lymphocyte cell line for acute Tcell leukemia) and/or Nalm6 (human ALL cell line) cells.

[2] = test system: Jukat (human T lymphocyte cell line for acute T cell leukemia); test: CellTiter Glo assay in Jukat cells
Procedure: as §1, §2

[3] = test system: HL60 (Human promyelocytic leukemia cell line); test: CellTiter Glo assay in HL60 cells
Procedure: as §1, §2

SMILES | IC50 ([1]; NALM-6, second Table 4) [µM] | IC50 ([2]; second Table 4) [µM] | IC50 ([3]; HL-60, second Table 4) [µM] | IC50 ([1]; NALM-6, Table 5) [µM] | IC50 ([2]; Table 5) [µM] | IC50 ([3]; HL-60, Table 5) [µM]
O=C(Nc1ccc([N+](=O)[O-])cc1Cl)c1cc(Cl)ccc1O [Compound 23] | < 1 | < 1 | < 1 | – | – | –
Cc1cc(NC(=O)c2cc(F)ccc2O)ccc1F [Compound 56] | 1 to 10 | < 1 | 1 to 10 | – | – | –
O=C(Nc1ccc(C(F)(F)F)cc1)c1ccc2cccnc2c1O [Compound 66] | – | – | – | 0.1 to 1 | 0.1 to 1 | 0.1 to 1
O=C(Nc1ccc(Cl)cc1Cl)c1ccc2cccnc2c1O [Compound 81] | – | – | – | 0.1 to 1 | 0.1 to 1 | 0.1 to 1
N#Cc1ccc(NC(=O)c2ccc(C(F)(F)F)cc2O)cc1 [Compound 17] | < 1 | < 1 | < 1 | – | – | –
N#Cc1ccc(NC(=O)c2ccc3cccnc3c2O)cc1 [Compound 64] | – | – | – | < 0.1 | 0.1 to 1 | 0.1 to 1
O=C(Nc1cccc(F)c1F)c1cc(F)ccc1O [Compound 40] | 1 to 10 | 1 to 10 | 1 to 10 | – | – | –
O=C(Nc1ccc(Br)c(Cl)c1)c1ccc2cccnc2c1O [Compound 68] | – | – | – | 0.1 to 1 | 0.1 to 1 | 0.1 to 1
O=C(Nc1ccc(OC(F)(F)F)cc1)c1cc(F)ccc1O [Compound 45] | 1 to 10 | < 1 | < 1 | – | – | –
O=C(Nc1ccc(OC(F)(F)F)c(Cl)c1)c1cc(F)ccc1O [Compound 46] | < 1 | < 1 | < 1 | – | – | –
O=C(Nc1ccc([N+](=O)[O-])cc1Cl)c1ccc2cccnc2c1O [Compound 82] | – | – | – | < 0.1 | 0.1 to 1 | 0.1 to 1
N#Cc1ccc(NC(=O)c2cc(-c3ccccc3)ccc2O)cc1 [Compound 15] | 1 to 10 | < 1 | 1 to 10 | – | – | –
Cc1cc(C(=O)Nc2ccc(C#N)cc2)c(O)c2ncccc12 [Compound 73] | – | – | – | 0.1 to 1 | 0.1 to 1 | 1 to 10
N#Cc1ccc(Cl)c(NC(=O)c2ccc3cccnc3c2O)c1 [Compound 80] | – | – | – | 0.1 to 1 | 0.1 to 1 | 0.1 to 1
N#Cc1ccc(NC(=O)c2cc(-c3ccco3)c3cccnc3c2O)cc1 [Compound 72] | – | – | – | 0.1 to 1 | 0.1 to 1 | 0.1 to 1
CC(=O)Oc1ccc(Cl)cc1C(=O)Nc1ccc([N+](=O)[O-])cc1Cl [Compound 24] | < 1 | < 1 | < 1 | – | – | –
Cc1ccc(NC(=O)c2cc(F)ccc2O)cc1C(F)(F)F [Compound 49] | 1 to 10 | 1 to 10 | < 1 | – | – | –
O=C(Nc1cccc(C(F)(F)F)c1)c1cc(F)ccc1O [Compound 50] | 1 to 10 | < 1 | < 1 | – | – | –
N#Cc1cc(Cl)ccc1NC(=O)c1ccc2cccnc2c1O [Compound 84] | – | – | – | 0.1 to 1 | < 0.1 | 0.1 to 1
O=C(Nc1ccc(Cl)cc1F)c1cc(F)ccc1O [Compound 37] | 1 to 10 | < 1 | 1 to 10 | – | – | –
O=C(Nc1cc(Cl)cc(Cl)c1)c1cc(F)ccc1O [Compound 42] | 1 to 10 | < 1 | < 1 | – | – | –
N#Cc1ccc(NC(=O)c2cc(Cl)c(F)cc2O)cc1 [Compound 161] | > 10 | < 1 | < 1 | – | – | –
Cc1cc(C#N)ccc1NC(=O)c1ccc2cccnc2c1O [Compound 78] | – | – | – | < 0.1 | 0.1 to 1 | 0.1 to 1
Cc1cccc(Cl)c1NC(=O)c1ccc2cccnc2c1O [Compound 79] | – | – | – | 1 to 10 | 1 to 10 | 1 to 10

SMILES | IC50 ([1]; NALM-6, second Table 4) [µM] | IC50 ([2]; second Table 4) [µM] | IC50 ([3]; HL-60, second Table 4) [µM] | IC50 ([1]; NALM-6, Table 5) [µM] | IC50 ([2]; Table 5) [µM] | IC50 ([3]; HL-60, Table 5) [µM]
O=C(Nc1ccc(F)cc1F)c1cc(F)ccc1O [Compound 39] | 1 to 10 | 1 to 10 | 1 to 10 | – | – | –
O=C(Nc1cc(Cl)ccc1Cl)c1ccc2cccnc2c1O [Compound 83] | – | – | – | 0.1 to 1 | 0.1 to 1 | 1 to 10
N#Cc1ccc(NC(=O)c2cc(-c3ccccc3)c3cccnc3c2O)cc1 [Compound 65] | – | – | – | 0.1 to 1 | 0.1 to 1 | 0.1 to 1
Cc1ccc(C(F)(F)F)cc1NC(=O)c1cc(F)ccc1O [Compound 63] | 1 to 10 | < 1 | < 1 | – | – | –
O=C(Nc1cc(F)cc(F)c1)c1ccc2cccnc2c1O [Compound 69] | – | – | – | 0.1 to 1 | 0.1 to 1 | 0.1 to 1
N#Cc1cc(NC(=O)c2cc(F)ccc2O)ccc1F [Compound 20] | 1 to 10 | 1 to 10 | 1 to 10 | – | – | –
N#Cc1ccc(NC(=O)c2ccc3cccnc3c2O)c(C#N)c1 [Compound 85] | – | – | – | 0.1 to 1 | 0.1 to 1 | 0.1 to 1
O=C(Nc1cccc(Cl)c1)c1cc(F)ccc1O [Compound 43] | 1 to 10 | 1 to 10 | 1 to 10 | – | – | –
O=C(Nc1cccc(OC(F)(F)F)c1)c1cc(F)ccc1O [Compound 52] | 1 to 10 | < 1 | < 1 | – | – | –
O=C(Nc1ccc(Cl)c(Cl)c1)c1cc(F)ccc1O [Compound 31] | 1 to 10 | < 1 | < 1 | – | – | –
O=C(Nc1cccc(F)c1)c1cc(F)ccc1O [Compound 33] | 1 to 10 | 1 to 10 | 1 to 10 | – | – | –
O=C(Nc1cc(C(F)(F)F)cc(C(F)(F)F)c1)c1cc(F)ccc1O [Compound 51] | < 1 | < 1 | < 1 | – | – | –
N#Cc1ccc(NC(=O)c2cc(Br)c3cccnc3c2O)cc1 [Compound 71] | – | – | – | < 0.1 | < 0.1 | 0.1 to 1
O=C(Nc1ccc(Cl)cc1Cl)c1cc(F)ccc1O [Compound 38] | 1 to 10 | > 10 | < 1 | – | – | –
O=C(Nc1ccc(Cl)c(C(F)(F)F)c1)c1cc(F)ccc1O [Compound 47] | < 1 | > 10 | < 1 | – | – | –
O=C(Nc1ccc(C(F)(F)F)cc1)c1cc(F)ccc1O [Compound 44] | < 1 | < 1 | < 1 | – | – | –
CCOC(=O)c1ccc(NC(=O)c2cc(F)ccc2O)cc1 [Compound 57] | 1 to 10 | 1 to 10 | 1 to 10 | – | – | –
O=C(Nc1ccc(F)c(C(F)(F)F)c1)c1cc(F)ccc1O [Compound 48] | 1 to 10 | < 1 | < 1 | – | – | –
N#Cc1ccc(NC(=O)c2cc(-c3cc(F)cc(F)c3)ccc2O)cc1 [Compound 233] | 1 to 10 | 1 to 10 | 1 to 10 | – | – | –
N#Cc1ccc(NC(=O)c2ccc3cccnc3c2O)c(Cl)c1 [Compound 77] | – | – | – | 0.1 to 1 | 0.1 to 1 | 0.1 to 1
O=C(Nc1cc(C(F)(F)F)cc(C(F)(F)F)c1)c1ccc2cccnc2c1O [Compound 70] | – | – | – | 1 to 10 | 0.1 to 1 | 1 to 10
Cc1ccc(C#N)c(NC(=O)c2ccc3cccnc3c2O)c1 [Compound 86] | – | – | – | 0.1 to 1 | 0.1 to 1 | 1 to 10
N#Cc1ccc(NC(=O)c2ccc(-c3ccccc3)cc2O)cc1 [Compound 101] | < 1 | < 1 | < 1 | – | – | –
